Data: ChEMBL document CHEMBL3396954, “Synthesis and in vitro biological evaluation of dihydroartemisinyl-chalcone esters” (Eur J Med Chem, 2015)

Test system: Plasmodium falciparum
Test: Antimalarial activity against chloroquine-resistant Plasmodium falciparum W2 assessed as inhibition of parasite proliferation after 96 hrs by SYBR Green I-based fluorescence method
Type: functional, organism-based
Settings: W2, 96 h
Work on `C[C@H]1[C@@H](O)O[C@@H]2O[C@@]3(C)CC[C@H]4[C@H](C)CC[C@@H]1[C@@]24OO3` [ARTENIMOL] yielded an IC50 of 0.00131 µM. `COc1ccc(C(=O)/C=C/c2ccc(C(=O)O)cc2)cc1[N+](=O)[O-]` showed an IC50 of 0.0312 µM. With `Cc1ccc(C(=O)/C=C/c2ccc(C(=O)O)cc2)o1` the IC50 was 0.0173 µM. Work on `Cc1ccc(C(=O)/C=C/c2ccc(C(=O)O[C@@H]3O[C@@H]4O[C@]5(C)CC[C@H]6[C@H](C)CC[C@@H]([C@H]3C)[C@@]46OO5)cc2)o1` yielded an IC50 of 0.00147 µM. In the case of `C[C@H]1[C@H](OC(=O)CCC(=O)O)O[C@@H]2O[C@@]3(C)CC[C@H]4[C@H](C)CC[C@@H]1[C@@]24OO3` [ARTESUNATE], the IC50 is reported as 0.00571 µM. `O=C(O)c1ccc(/C=C/C(=O)c2ccccc2)cc1` gave an IC50 of 0.0308 µM.

Test system: not listed separately
Test: Selectivity index, ratio of IC50 for chloroquine-resistant Plasmodium falciparum W2 to IC50 for human MCF7 cells
Settings: not given
With `COc1ccc(C(=O)/C=C/c2ccc(C(=O)O)cc2)cc1[N+](=O)[O-]` the “Ratio IC50” value was 0.3. In the case of `Cc1ccc(C(=O)/C=C/c2ccc(C(=O)O)cc2)o1`, the “Ratio IC50” value is reported as 1.1. In the case of `Cc1ccc(C(=O)/C=C/c2ccc(C(=O)O[C@@H]3O[C@@H]4O[C@]5(C)CC[C@H]6[C@H](C)CC[C@@H]([C@H]3C)[C@@]46OO5)cc2)o1`, the “Ratio IC50” value is reported as 2325.9. For `O=C(O)c1ccc(/C=C/C(=O)c2ccccc2)cc1`, the “Ratio IC50” value was over 0.4.

Test system: not listed separately
Test: Selectivity index, ratio of IC50 for chloroquine-resistant Plasmodium falciparum W2 to IC50 for human TK10 cells
Design: species or system TK-10
Settings: not given
With `COc1ccc(C(=O)/C=C/c2ccc(C(=O)O)cc2)cc1[N+](=O)[O-]` the “Ratio IC50” value was 0.7. In the case of `Cc1ccc(C(=O)/C=C/c2ccc(C(=O)O)cc2)o1`, the “Ratio IC50” value is reported as 5.2. In the case of `Cc1ccc(C(=O)/C=C/c2ccc(C(=O)O[C@@H]3O[C@@H]4O[C@]5(C)CC[C@H]6[C@H](C)CC[C@@H]([C@H]3C)[C@@]46OO5)cc2)o1`, the “Ratio IC50” value is reported as 2451.7. With `O=C(O)c1ccc(/C=C/C(=O)c2ccccc2)cc1` the “Ratio IC50” value was over 1.

Test system: not listed separately
Test: Selectivity index, ratio of IC50 for human WI38 cells to IC50 for chloroquine-sensitive Plasmodium falciparum 3D7
Type: toxicity, cell-based, WI-38
Settings: read-out: Ratio IC50
Compound `COc1ccc(C(=O)/C=C/c2ccc(C(=O)O)cc2)cc1[N+](=O)[O-]` has a selectivity ratio of 0.7. In the case of `Cc1ccc(C(=O)/C=C/c2ccc(C(=O)O)cc2)o1`, the selectivity ratio is reported as 1.7. With `Cc1ccc(C(=O)/C=C/c2ccc(C(=O)O[C@@H]3O[C@@H]4O[C@]5(C)CC[C@H]6[C@H](C)CC[C@@H]([C@H]3C)[C@@]46OO5)cc2)o1` the selectivity ratio was 36500. Work on `O=C(O)c1ccc(/C=C/C(=O)c2ccccc2)cc1` yielded a selectivity ratio of over 3.4.

Test system: WI-38
Test: Selectivity index, ratio of IC50 for human WI38 cells to IC50 for human TK10 cells
Type: functional
Settings: not given
For `COc1ccc(C(=O)/C=C/c2ccc(C(=O)O)cc2)cc1[N+](=O)[O-]`, the “Ratio IC50” value was 1.4. With `Cc1ccc(C(=O)/C=C/c2ccc(C(=O)O)cc2)o1` the “Ratio IC50” value was 0.4. With `Cc1ccc(C(=O)/C=C/c2ccc(C(=O)O[C@@H]3O[C@@H]4O[C@]5(C)CC[C@H]6[C@H](C)CC[C@@H]([C@H]3C)[C@@]46OO5)cc2)o1` the “Ratio IC50” value was 20. With `O=C(O)c1ccc(/C=C/C(=O)c2ccccc2)cc1` the “Ratio IC50” value was over 3.

Test system: UACC-62
Test: Selectivity index, ratio of IC50 for human WI38 cells to IC50 for human UACC62 cells
Type: functional
Settings: not given
For `COc1ccc(C(=O)/C=C/c2ccc(C(=O)O)cc2)cc1[N+](=O)[O-]`, the “Ratio IC50” value was 2.2. In the case of `Cc1ccc(C(=O)/C=C/c2ccc(C(=O)O)cc2)o1`, the “Ratio IC50” value is reported as 0.6. With `Cc1ccc(C(=O)/C=C/c2ccc(C(=O)O[C@@H]3O[C@@H]4O[C@]5(C)CC[C@H]6[C@H](C)CC[C@@H]([C@H]3C)[C@@]46OO5)cc2)o1` the “Ratio IC50” value was 21.9. In the case of `O=C(O)c1ccc(/C=C/C(=O)c2ccccc2)cc1`, the “Ratio IC50” value is reported as over 7.

Test system: MCF7
Test: Selectivity index, ratio of IC50 for human WI38 cells to IC50 for human MCF7 cells
Type: functional
Settings: not given
In the case of `COc1ccc(C(=O)/C=C/c2ccc(C(=O)O)cc2)cc1[N+](=O)[O-]`, the “Ratio IC50” value is reported as 3. With `Cc1ccc(C(=O)/C=C/c2ccc(C(=O)O)cc2)o1` the “Ratio IC50” value was 1.6. In the case of `Cc1ccc(C(=O)/C=C/c2ccc(C(=O)O[C@@H]3O[C@@H]4O[C@]5(C)CC[C@H]6[C@H](C)CC[C@@H]([C@H]3C)[C@@]46OO5)cc2)o1`, the “Ratio IC50” value is reported as 21.1. With `O=C(O)c1ccc(/C=C/C(=O)c2ccccc2)cc1` the “Ratio IC50” value was over 8.

Test system: not listed separately
Test: Anticancer activity against human UACC62 cells assessed as inhibition of cell growth after 24 hrs by SRB assay
Type: functional, cell-based
Settings: UACC-62, 24 h
Work on `C=C1C(=O)O[C@@H]2C3O[C@]3(C)CC/C=C(\C)CC[C@@H]12` (stereo partly specified) yielded an IC50 of 9.71 µM. For `COc1ccc(C(=O)/C=C/c2ccc(C(=O)O)cc2)cc1[N+](=O)[O-]`, the IC50 was 13.4 µM. For `Cc1ccc(C(=O)/C=C/c2ccc(C(=O)O)cc2)o1`, the IC50 was 58 µM. Compound `Cc1ccc(C(=O)/C=C/c2ccc(C(=O)O[C@@H]3O[C@@H]4O[C@]5(C)CC[C@H]6[C@H](C)CC[C@@H]([C@H]3C)[C@@]46OO5)cc2)o1` has an IC50 of 3.29 µM. Compound `O=C(O)c1ccc(/C=C/C(=O)c2ccccc2)cc1` has an IC50 of 13.9 µM.

Test system: not listed separately
Test: Selectivity index, ratio of IC50 for chloroquine-resistant Plasmodium falciparum W2 to IC50 for human UACC62 cells
Design: species or system UACC-62
Settings: not given
In the case of `COc1ccc(C(=O)/C=C/c2ccc(C(=O)O)cc2)cc1[N+](=O)[O-]`, the “Ratio IC50” value is reported as 0.4. With `Cc1ccc(C(=O)/C=C/c2ccc(C(=O)O)cc2)o1` the “Ratio IC50” value was 3.3. For `Cc1ccc(C(=O)/C=C/c2ccc(C(=O)O[C@@H]3O[C@@H]4O[C@]5(C)CC[C@H]6[C@H](C)CC[C@@H]([C@H]3C)[C@@]46OO5)cc2)o1`, the “Ratio IC50” value was 2240.1. In the case of `O=C(O)c1ccc(/C=C/C(=O)c2ccccc2)cc1`, the “Ratio IC50” value is reported as over 0.5.

Test system: not listed separately
Test: Cytotoxicity against human WI38 cells assessed as inhibition of proliferation after 24 hrs by SRB assay
Type: cell-based
Settings: WI-38, 24 h
`COc1ccc(C(=O)/C=C/c2ccc(C(=O)O)cc2)cc1[N+](=O)[O-]` gave an IC50 of 29 µM. Work on `Cc1ccc(C(=O)/C=C/c2ccc(C(=O)O)cc2)o1` yielded an IC50 of 32 µM. For `Cc1ccc(C(=O)/C=C/c2ccc(C(=O)O[C@@H]3O[C@@H]4O[C@]5(C)CC[C@H]6[C@H](C)CC[C@@H]([C@H]3C)[C@@]46OO5)cc2)o1`, the IC50 was 72.2 µM. `CCN(CC)CCCC(C)Nc1ccnc2cc(Cl)ccc12` (stereo unspecified) [CHLOROQUINE] showed an IC50 of 3.63 µM. With `CC[C@H]1CN2CCc3cc(OC)c(OC)cc3[C@@H]2C[C@@H]1C[C@H]1NCCc2cc(OC)c(OC)cc21` [EMETINE] the IC50 was 0.05 µM. With `O=C(O)c1ccc(/C=C/C(=O)c2ccccc2)cc1` the IC50 was over 100 µM.

Test system: not listed separately
Test: Resistance index, ratio of IC50 for chloroquine-resistant Plasmodium falciparum W2 to IC50 for chloroquine-sensitive Plasmodium falciparum 3D7
Type: functional
Settings: not given
Compound `C[C@H]1[C@@H](O)O[C@@H]2O[C@@]3(C)CC[C@H]4[C@H](C)CC[C@@H]1[C@@]24OO3` [ARTENIMOL] has a Ratio IC50 of 0.9. With `COc1ccc(C(=O)/C=C/c2ccc(C(=O)O)cc2)cc1[N+](=O)[O-]` the Ratio IC50 was 0.8. `Cc1ccc(C(=O)/C=C/c2ccc(C(=O)O)cc2)o1` gave a Ratio IC50 of 0.9. `Cc1ccc(C(=O)/C=C/c2ccc(C(=O)O[C@@H]3O[C@@H]4O[C@]5(C)CC[C@H]6[C@H](C)CC[C@@H]([C@H]3C)[C@@]46OO5)cc2)o1` gave a Ratio IC50 of 0.7. Work on `O=C(O)c1ccc(/C=C/C(=O)c2ccccc2)cc1` yielded a Ratio IC50 of 1.

Test system: Plasmodium falciparum
Test: Antimalarial activity against chloroquine-sensitive Plasmodium falciparum 3D7 assessed as inhibition of parasite proliferation after 96 hrs by SYBR Green I-based fluorescence method
Type: functional, organism-based
Settings: 3D7, 96 h
Work on `C[C@H]1[C@@H](O)O[C@@H]2O[C@@]3(C)CC[C@H]4[C@H](C)CC[C@@H]1[C@@]24OO3` [ARTENIMOL] yielded an IC50 of 0.00145 µM. In the case of `COc1ccc(C(=O)/C=C/c2ccc(C(=O)O)cc2)cc1[N+](=O)[O-]`, the IC50 is reported as 0.0407 µM. With `Cc1ccc(C(=O)/C=C/c2ccc(C(=O)O)cc2)o1` the IC50 was 0.0183 µM. For `Cc1ccc(C(=O)/C=C/c2ccc(C(=O)O[C@@H]3O[C@@H]4O[C@]5(C)CC[C@H]6[C@H](C)CC[C@@H]([C@H]3C)[C@@]46OO5)cc2)o1`, the IC50 was 0.00198 µM. `C[C@H]1[C@H](OC(=O)CCC(=O)O)O[C@@H]2O[C@@]3(C)CC[C@H]4[C@H](C)CC[C@@H]1[C@@]24OO3` [ARTESUNATE] gave an IC50 of 0.004 µM. In the case of `O=C(O)c1ccc(/C=C/C(=O)c2ccccc2)cc1`, the IC50 is reported as 0.0295 µM.

Test system: MCF7
Test: Anticancer activity against human MCF7 cells assessed as inhibition of cell growth after 24 hrs by SRB assay
Type: functional, cell-based
Settings: MCF7, 24 h
`C=C1C(=O)O[C@@H]2C3O[C@]3(C)CC/C=C(\C)CC[C@@H]12` (stereo partly specified) showed an IC50 of 2.4 µM. In the case of `COc1ccc(C(=O)/C=C/c2ccc(C(=O)O)cc2)cc1[N+](=O)[O-]`, the IC50 is reported as 9.52 µM. `Cc1ccc(C(=O)/C=C/c2ccc(C(=O)O)cc2)o1` gave an IC50 of 19.7 µM. For `Cc1ccc(C(=O)/C=C/c2ccc(C(=O)O[C@@H]3O[C@@H]4O[C@]5(C)CC[C@H]6[C@H](C)CC[C@@H]([C@H]3C)[C@@]46OO5)cc2)o1`, the IC50 was 3.42 µM. `O=C(O)c1ccc(/C=C/C(=O)c2ccccc2)cc1` showed an IC50 of 11.9 µM.

Test system: TK-10
Test: Anticancer activity against human TK10 cells assessed as inhibition of cell growth after 24 hrs by SRB assay
Type: functional, cell-based
Settings: TK-10, 24 h
Work on `C=C1C(=O)O[C@@H]2C3O[C@]3(C)CC/C=C(\C)CC[C@@H]12` (stereo partly specified) yielded an IC50 of 3.71 µM. `COc1ccc(C(=O)/C=C/c2ccc(C(=O)O)cc2)cc1[N+](=O)[O-]` gave an IC50 of 21.1 µM. `Cc1ccc(C(=O)/C=C/c2ccc(C(=O)O)cc2)o1` gave an IC50 of 90 µM. `Cc1ccc(C(=O)/C=C/c2ccc(C(=O)O[C@@H]3O[C@@H]4O[C@]5(C)CC[C@H]6[C@H](C)CC[C@@H]([C@H]3C)[C@@]46OO5)cc2)o1` gave an IC50 of 3.6 µM. For `O=C(O)c1ccc(/C=C/C(=O)c2ccccc2)cc1`, the IC50 was 29.8 µM.
